Source: US20040259853A1, “Methods for preventing acute clinical vascular events in a subject” (The Trustees of Columbia University, priority 2000, published 2004)
Where a SMILES comes first, the peptide text is derived from it. [ ]: non-standard residue; d: D form. Nle = CCCC[C@H](N)C(=O)O

How the values were obtained:
ABCA1 protein = experiment: ABCA1 immunoblot of total and cell-surface protein in cholesterol-loaded macrophages; type: cell-based, mouse; conditions: for decrease in ABCA1 protein in free cholesterol-loaded macrophages: 50 μM; for decrease in ABCA1 protein in FC-loaded macrophages: calpeptin 40 μM, PD150606 25 μM (data not shown)
Description: Macrophages were pre-incubated for 14 h with 50 μg/ml acetyl-LDL in DMEM, 0.2% BSA, in the absence (CE) or presence (FC) of 58035. The cells were then incubated for 5 h with 100 μg/ml acetyl-LDL in DMEM, 0.2% BSA, in the absence or presence of 58035, respectively, with no further additions (Control) or in the presence of 10 μg/ml cycloheximide, 50 μM ALLN, or 50 μM lactacystin as indicated. Aliquots of cell lysates were then assayed for ABCA1 and β-actin protein by immunoblot analysis.
Macrophages were pre-incubated for 14 h with 50 μg/ml acetyl-LDL in DMEM, 0.2% BSA, in the absence (CE) or presence (FC) of 58035. […] Aliquots of total cell protein (top panel) or cell-surface protein (bottom panel) were then subjected to immunoblot analysis for ABCA1 and the standards β-actin or β1-integrin.
Macrophage monolayers in 35-mm dishes were washed with ice-cold PBS 3 times and then incubated with ice-cold PBS containing 0.5 mg/ml NHS—SS-biotin (Pierce) for 30 minutes at 4° C. After washing 5 times with ice-cold PBS containing 20 mM Tris-HCl, pH 8.0, the cells were scraped into PBS and pelleted by centrifugation. The pelleted macrophages were lysed in 50 μl RIPA buffer (0.5% sodium deoxycholate, 0.1% SDS, 1% Triton X-100, 20 mM Tris, 150 mM NaCl, and 5 mM EDTA, pH 8) containing 1 mM PMSF. […] of the lysate were subjected directly to 4-20% gradient SDS-polyacrylamide gel electrophoresis (SDS-PAGE) for determination of total ABCA1. The rest of the cell lysate was affinity-purified to isolate biotinylated proteins. Briefly, the cell lysates were diluted to 150 μl in RIPA buffer and incubated with 50 μl immobilized streptavidin agarose (Pierce), which was pre-washed three times with RIPA buffer at 0° C. for 2 h with gentle shaking. The agarose was pelleted by centrifugation using a microcentrifuge at 5,000 rpm for 2 min; the pellet was resuspended in 1 ml RIPA buffer, and the process was repeated 5 times. The agarose was resuspended 30 μl SDS-PAGE loading buffer containing 330 mM β-mercaptoethanol at 37^6C for 15 min and subjected to SDS-PAGE as above. ABCA1 and β-integrin were detected by Western blot using anti-ABCA1 and anti-β-integrin anti-sera. The blots were reprobed with anti-β-actin antibody, which detected no actin signal, thus verifying that no cytosolic protein was biotinylated by the procedure.
Peritoneal macrophages were lysed in RIPA buffer containing 1 mM PMSF. Nuclei were removed by centrifugation at 3000×g for 10 min at 4° C. […] For Western blot detection of ABCA1, anti-ABCA1 antiserum was used. Signals were detected using HRP-conjugated secondary anti-bodies (Bio-Rad) and ECL (Amersham Pharmacia Biotech). The membranes were reprobed with anti-β actin monoclonal antibody or anti-β1-integrin anti-serum for the proper internal controls. The relative intensities of the bands were determined by densitometry.

[1] = tested on: unfolded protein response (UPR); experiment: Immunoblot analysis of UPR markers (CHOP, PERK, IRE1α, XBP-1) in macrophages; conditions: 58035 alone, 5 h (FIG. 16B, lane 2)
Description: For detection of PERK, nuclei-free cell extracts were immunoprecipitated with anti-PERK antiserum and then immunoblotted, while for detection of ATF-4 and CHOP, immunoblots were performed on nuclear extracts. Lamin B, a nuclear protein, was used as the loading control.
Immunoprecipitation and immunoblot detection for IRE1α and PERK were conducted as described by Harding et al. (35). Immunoblot analyses of XBP-1, ATF4, and CHOP were carried out as described previously (36,38) with minor modifications. Briefly, cells were lysed in RIPA buffer to prepare whole-cell lysates or to prepare nuclei by centrifugation. The whole-cell lysates or nuclei were resuspended in 2×SDS-PAGE loading buffer and incubated at 95° C. for 10 min. Whole cell (100 μg) or nuclear lysates (20 μg) were electrophoresed on 4-20% gradient SDS-PAGE gels and electrotransferred to 0.22-μm nitrocellulose membrane using a Bio-Rad mini-transfer tank. After incubation with primary antibodies, the protein bands were detected with HRP-conjugated secondary antibodies (Bio-Rad) and ECL (Amersham Pharmacia Biotech). The membranes were reprobed with an anti-β-actin monoclonal antibody or an anti-lamin B serum to control for differences in loading.

[2] = tested on: ABCA1-mediated cholesterol efflux; experiment: 3H-cholesterol efflux to apoA-I from free cholesterol-loaded macrophages; type: cell-based, mouse; conditions: for cholesterol efflux to apoA-I from FC-loaded NPC+/− macrophages: 200 μM, 18 h apoA-1 incubation (FIG. 9D)
Description: Peritoneal macrophages from C57 mice were incubated for 5 h with 100 μg/ml ^3H-cholesterol-labeled acetyl-LDL in DMEM, 0.2% BSA, in the presence of 10 μg/ml 58035.
Acetyl-LDL (800 μg) was incubated with 10 μCi ^3H-cholesterol for 30 min at 37° C., followed by addition of 8 ml of DMEM, 0.2% BSA. The macrophages were incubated with this medium for 5 h, washed 3 times with PBS, and then incubated with DMEM, 0.2% BSA for 15 min at 37° C. After washing with PBS, the macrophages were incubated with DMEM, 0.2% BSA, containing either 15 μg/ml apoAI or 20 μg/ml HDL2. At the indicated time points, 100 μl of media was removed and centrifuged for 5 min at 14,000 rpm to pellet cellular debris. The radioactivity in this fraction of media was quantitated by liquid scintillation counting. After the last time point, the remainder of the media was removed, and the cells were dissolved in 0.5 ml of 0.1 N NaOH containing 0.5% sodium dodecylsulfate (5 h at room temperature). A 100 μl-aliquot of the cell lysate was counted, and the percent efflux was calculated as (media cpm)[…](cell +media cpm)×100. Total protein in the cell lysate was determined using the Bio-Rad DC protein assay kit. Note that there was no statistical difference in cellular cpm or protein between cholesteryl ester- and free cholesterol-loaded macrophages.

[3] = tested on: ABCA1 transporter activity (phospholipid efflux to apoA-I); experiment: 3H-phospholipid efflux to apoA-I from free cholesterol-loaded macrophages; type: cell-based, mouse; conditions: 15 min at 37° C.
Description: Aliquots of free cholesterol-loaded cells were incubated for 15 min at 37° C. in the absence or presence of 0.5% or 0.2% […] (CD). This treatment removes about 30% of total cellular cholesterol. All cells were then chased with media containing 15 μg/ml apoA-I for 3.33 h and phospholipid efflux was measured as in FIG. 6C.
Macrophages were labeled with ^3H-choline (5 μCi/ml) in DMEM, 10% FBS, for 24 h. After washing three times with PBS, the macrophages were incubated with 100 μg/ml acetyl-LDL+58035 in DMEM, 0.2% BSA, for 5 h. The cells were then incubated with 15 μg/ml apoA-1 in DMEM, 0.2% BSA, for the indicated time periods. ^3H-choline-containing phospholipids in aliquots of the medium were extracted in chloroform:methanol (2:1, v/v), and those remaining in the cells in hexane:isopropyl alcohol (3:2, v/v). The radioactivity was measured by scintillation counting.

For CCCC[C@@H](C=O)NC(=O)[C@H](CC(C)C)NC(=O)[C@H](CC(C)C)NC(C)=O [ALLN] (Ac-Leu-Leu-[Nle]-aldehyde), the “decrease in ABCA1 protein in free cholesterol-loaded macrophages” value (ABCA1 protein; 5 h (FIG. 8B)) was “blocked the decrease in ABCA1”.
With O=C(O)/C(S)=C/c1ccc(I)cc1 [PD150606] the “decrease in ABCA1 protein in FC-loaded macrophages” value (ABCA1 protein) was “did not affect the decrease in ABCA1”.
With CCCC[C@@H](C=O)NC(=O)[C@H](CC(C)C)NC(=O)OCc1ccccc1 [calpeptin] the “decrease in ABCA1 protein in FC-loaded macrophages” value (ABCA1 protein) was “did not affect the decrease in ABCA1”.
With CCCCCCCCCC[Si](C)(C)CCC(=O)NC(Cc1ccc(C)cc1)c1ccccc1 (stereo not shown) [compound 58035, 3-[decyldimethylsilyl]-N-[2-(4-methylphenyl)-1-phenylethyl] propanamide] the “PERK activation in macrophages” value [1] was “partially activate PERK”.
With C[C@@H]1C[C@@H]([C@H](O)CC2CC(=O)NC(=O)C2)C(=O)[C@@H](C)C1 [cycloheximide] the “decrease in ABCA1 protein in free cholesterol-loaded cells” value (ABCA1 protein; 10 μg/ml cycloheximide, 5 h (FIG. 8B)) was “insensitive”.
COc1ccc(Cl)cc1C(=O)NCCc1ccc(S(=O)(=O)NC(=O)NC2CCCCC2)cc1 [glyburide] was tested, and the “cholesterol efflux to apoA-I from FC-loaded NPC+/− macrophages” value [2] was “effectively blocked”.
With CN(C)CCCN1c2ccccc2CCc2ccccc21 [imipramine] the “ABCA1 protein expression in free cholesterol-loaded cells” value (ABCA1 protein; low concentrations) was “markedly enhance”, the “induction of cholesterol efflux to ApoA-1” value ([2]; FC-loaded macrophages (FIGS. 11A, 11B)) was “marked ability to induce cholesterol efflux to ApoA-1” and the “restoration of ABCA1-dependent efflux” value ([2]; optimal low doses, FC-loaded macrophages (FIG. 12A)) was “restored ABCA1-dependent efflux”.
For CC(=O)N[C@@H](CSC(=O)[C@]1([C@@H](O)C(C)C)NC(=O)[C@H](C)[C@@H]1O)C(=O)O [lactacystin], the “decrease in ABCA1 protein in free cholesterol-loaded macrophages” value (ABCA1 protein; 5 h (FIG. 8B)) was “blocked the decrease in ABCA1”.
For [Na+].[Na+].[Na+].[O]=[V]([O-])([O-])[O-] [ortho-vanadate, sodium orthovanadate], the “cholesterol efflux to apoA-I from FC-loaded NPC+/− macrophages” value [2] was “effectively blocked”.
methyl-β-cyclodextrin was tested, and the “defect in phosphatidylcholine efflux to apoA-I of free cholesterol-loaded cells” value ([3]; 0.5% or 0.2% (FIG. 6E)) was “reversed” and the “removal of total cellular cholesterol” value ([3]; 0.5% or 0.2%, FC-loaded cells) was “about 30%”.
